The source of these data is ChEMBL document CHEMBL1255343, “Activities of daptomycin and comparative antimicrobials, singly and in combination, against extracellular and intracellular Staphylococcus aureus and its stable small-colony variant in human monocyte-derived macrophages and in broth” (2008).

Values after ≈ are worked out from the molar mass of the structure shown. Active and inactive are the calls of the source.

As a reminder, the MIC is the smallest concentration in the dilution series that meets the test's criterion for growth inhibition. A high value points to a need for much substance.

In experiment [1] the test system is Staphylococcus aureus. The experiment is described as follows: Antimicrobial activity against extracellular Staphylococcus aureus 2549 small colony variants after 4 hrs in MH-II broth. In kind it is functional, organism-based.
In experiment [2] the test system is Staphylococcus aureus. The experiment is described as follows: Antimicrobial activity against intracellular Staphylococcus aureus 2548 infected in human monocyte-derived macrophages after 48 hrs. It is filed as functional, organism-based.
In experiment [3] the test system is Staphylococcus aureus. The experiment is described as follows: Antimicrobial activity against Staphylococcus aureus 2549 small colony variants. It is filed as functional.
Experiment [4] has as its system Staphylococcus aureus. As to the kind of experiment: Antimicrobial activity against Staphylococcus aureus 2548. In kind it is functional.
The subject of experiment [5] is Staphylococcus aureus. As to the kind of experiment: Antimicrobial activity against extracellular Staphylococcus aureus 2548 after 4 hrs in MH-II broth. It is filed as functional, organism-based.
Experiment [6] deals with Staphylococcus aureus. As to the kind of experiment: Antimicrobial activity against Staphylococcus aureus 2547 small colony variants. It is filed as functional.
The test system of experiment [7] is Staphylococcus aureus. As to the kind of experiment: Antimicrobial activity against Staphylococcus aureus 2546. In kind it is functional.
Experiment [8] deals with Staphylococcus aureus. As to the kind of experiment: Antimicrobial activity against extracellular Staphylococcus aureus 2546 after 4 hrs in MH-II broth. In kind it is functional, organism-based.

Regarding GENTAMICIN, the outcome in experiment [1], in experiment [2], in experiment [5] and in experiment [8] was Active. Moreover, the MIC in experiment [3] worked out at 16 µg/mL; in experiment [4] it was 8 µg/mL; in experiment [6] it was 4 µg/mL; in experiment [7], 2 µg/mL.

Regarding `Cc1onc(-c2ccccc2)c1C(=O)N[C@@H]1C(=O)N2[C@@H]1SC(C)(C)[C@@H]2C(=O)O` [OXACILLIN], the MIC stood at 0.5 µg/mL (≈ 1.25 µM) in experiment [3], 0.25 µg/mL (≈ 0.623 µM) in experiment [4], 0.5 µg/mL (≈ 1.25 µM) in experiment [6] and 0.25 µg/mL (≈ 0.623 µM) in experiment [7].

Regarding `CCCCCCCCCC(=O)N[C@@H](Cc1c[nH]c2ccccc12)C(=O)N[C@H](CC(N)=O)C(=O)N[C@@H](CC(=O)O)C(=O)N[C@@H]1C(=O)NCC(=O)N[C@@H](CCCN)C(=O)N[C@@H](CC(=O)O)C(=O)N[C@H](C)C(=O)N[C@@H](CC(=O)O)C(=O)NCC(=O)N[C@H](CO)C(=O)N[C@@H]([C@H](C)CC(=O)O)C(=O)N[C@@H](CC(=O)c2ccccc2N)C(=O)O[C@@H]1C`, the result in experiment [1], in experiment [2], in experiment [5] and in experiment [8] was Active. In addition, the MIC turned out to be 0.5 µg/mL (≈ 0.309 µM) in experiment [3], 1 µg/mL (≈ 0.617 µM) in experiment [4], 1 µg/mL (≈ 0.617 µM) in experiment [6] and 1 µg/mL (≈ 0.617 µM) in experiment [7].

With `CCC[C@@H]1C[C@@H](C(=O)N[C@@H]([C@H]2O[C@H](SC)[C@H](O)[C@@H](O)[C@H]2O)[C@H](C)Cl)N(C)C1` [CLINDAMYCIN], the MIC in experiment [3] is 0.25 µg/mL (≈ 0.588 µM); in experiment [4] it was 0.06 µg/mL (≈ 0.141 µM); in experiment [6], 0.25 µg/mL (≈ 0.588 µM); in experiment [7], 0.125 µg/mL (≈ 0.294 µM).

Take `CO[C@H]1/C=C/O[C@@]2(C)Oc3c(C)c(O)c4c(O)c(c(/C=N/N5CCN(C)CC5)c(O)c4c3C2=O)NC(=O)/C(C)=C\C=C\[C@H](C)[C@H](O)[C@@H](C)[C@@H](O)[C@@H](C)[C@H](OC(C)=O)[C@@H]1C` [RIFAMPIN]: the result in experiment [2] was Active. Also, the MIC came to 0.06 µg/mL (≈ 0.0729 µM) in experiment [3], 0.125 µg/mL (≈ 0.152 µM) in experiment [4], 0.06 µg/mL (≈ 0.0729 µM) in experiment [6] and 0.125 µg/mL (≈ 0.152 µM) in experiment [7].
